Source: patent publication US7183067B2 (priority 2002, dated 2007)

Key:
concanavalin A (Con A) [1] = target: T1, concanavalin A (Con A) (Canavalia ensiformis, UniProt P02866); test: biochemical; assay type: binding
T1 construct: purchased SEIKAGAKU KOGYO

Pea Lectin (PSA) = target: T2, Pea Lectin (PSA) (Pisum sativum, UniProt P02867); test: SPR measurement of ligand-introduced chip with PSA; assay type: binding
T2 construct: purchased SEIKAGAKU KOGYO
T2 sequence (P02867 31-211 limits assumed): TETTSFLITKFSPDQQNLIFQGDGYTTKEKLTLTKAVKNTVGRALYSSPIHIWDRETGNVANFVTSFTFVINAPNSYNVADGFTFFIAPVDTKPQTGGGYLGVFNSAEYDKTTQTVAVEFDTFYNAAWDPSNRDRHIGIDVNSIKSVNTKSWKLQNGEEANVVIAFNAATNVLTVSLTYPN
T2 sequence (P02867 218-269 limits assumed): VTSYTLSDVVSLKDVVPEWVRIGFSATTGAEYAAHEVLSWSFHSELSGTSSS
Method: (§1) PBS solutions containing proteins of various concentrations were flown onto the ligand-introduced chip obtained in (5-1) by 60 μL at a flow rate of 20 μL/min so as to observe the binding and dissociating behavior of the ligand-introduced chip with each protein by an SPR measurement.
(§2) The following proteins were used. • BSA (SIGMA ALUBMUN, BOVINE) • Concanavalin A (SEIKAGAKU KOGYO) • Pea Lectin (SEIKAGAKU KOGYO) • Peanut Lectin (SEIKAGAKU KOGYO) • RCA120 (SEIKAGAKU KOGYO)
(§3) Moreover, Con A of various concentrations was acted on the ligand-introduced chip so as to conduct an SPR measurement on an interaction. Also, an SPR measurement was also conducted on an interaction with BSA and PSA so as to observe a resonant angle change.
(§4) Further, ligand-introduced chips were produced which includes 4-Mal and 4-Glc of the present invention and 2-Mal and 2-Glc serving as a comparative example immobilized thereon. Con A, BSA, PSA, RCA120, and PNA solutions of various concentrations were flown onto the ligand-introduced chips so as to observe a resonant angle change by an SPR measurement.

concanavalin A (Con A) [2] = target: T1, concanavalin A (Con A); test: Affinity chromatography on 4-Mal affinity column, SDS-PAGE of fractions: Con A; assay type: binding; details: mixed solution of Con A, PSA and BSA in PBS; elution with PBS, glucose, NaOH
Method: Following a general producing method of an affinity column, an affinity column including the ligand 4-Mal, obtained in Example 4, immobilized thereto. As a column carrier, Hitrap NHS-activated Hp (column volume 1 mL; manufactured by Amersham Co., Ltd.) was used. The column carrier, including a gel matrix and N-hydroxysuccinimide serving as an active group immobilized thereon through a spacer ([…] NHS group per 1 mL gel), is suitable to immobilizing onto a carrier a compound having an amino group. FIG. 6 is a schematic diagram showing the steps for preparation of an affinity column. […]
Absorbance of the fractions collected by the affinity chromatography in (6-2) was measured at a wavelength of 280 nm using an ultraviolet spectrometer. […]
The fractions (1 mL) so collected were freeze-dried and then mixed with the ion exchanged water (100 μL) so as to dissolve the fractions again. […] A ready-made gel (ATTO PAGEL-Compact AE-6000 (containing SDS 12.5%)) was set in an electrophoretic cell filled with the electrophoresis buffer solution. […]
Specifically, 12.5% acrylamide gel (ATTO PAGEL-Compact AE-6000) was used to perform SDS-PAGE, and Coomassie brilliant blue was used for dyeing, the result of which is shown in FIG. 8. […] In the Mix-3 fraction, BSA and PSA bands disappeared and only Con A band was detected. […]

BSA = target: T3, BSA (Bos taurus, UniProt P02769); test: SPR measurement of ligand-introduced chip with BSA; assay type: binding, bovine
T3 construct: purchased SIGMA
Method: as §1, §2, §3, §4

neutroavidin = target: T4, neutroavidin (Gallus gallus, UniProt P02701); test: Immobilization of ligand onto neutroavidin-immobilized SPR sensor chip; assay type: binding; details: ligand solutions flown until no further increase
T4 construct: purchased PIERCE CA47105
Method: The ligand-introduced chip was obtained by the following procedure. In the beginning, a sensor chip (manufactured by Japan Laser Electronics Co., Ltd.), prepared by depositing a gold thin film of 50 nm thick on a glass substrate of 13 mm×20 mm×0.7 mm, was placed in a UV ozone cleaner (product name: NL-UV253, Japan Laser Electronics Co., Ltd.) and was exposed to ultraviolet rays for 20 minutes so as to wash the surface of the sensor chip with ozone. Next, the sensor chip was immersed in a 4,4′-methanol dithiobutyrate solution (100 μM) in a Petri dish and gently shaken for 30 minutes at room temperature (product name: Bio Dancer, New Brunswick Scientific Co., Ltd.). 4-thiobutyric acid was immobilized onto the chip through a gold-sulfur bond. The chip was washed three times with ethanol. […] A surface plasmon resonant angle change then observed was monitored. […]
Next, 4.9 μM, 16.3 μM, and 49 μM 4-Mal solutions were flown onto (S) by 60 μL at a flow rate of 10 μL/min for immobilization; 0.49 μM and 4.9 μM 4-Glc solutions were flown onto (R) by 60 μL at a flow rate of 10 μL/min for immobilization. […] A resonant angle change quantity between a point of time when the resonant angle change had become constant and a point of time before the immobilization was defined as a immobilization quantity. […] In this sensorgram, the immobilization quantity of 4-Mal was 220 RU and that of 4-Gcl was 220 RU. […]

[3] = 1.0 μM Con A, Mal ligand chip against Glc ligand chip (2-channel), PBS pH 7.4, 25° C.

T4 sequence (P02701 25-152): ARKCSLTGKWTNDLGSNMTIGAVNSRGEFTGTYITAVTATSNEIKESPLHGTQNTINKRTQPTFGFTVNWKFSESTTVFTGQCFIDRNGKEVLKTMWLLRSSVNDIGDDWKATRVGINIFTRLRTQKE

| Compound | Kd (concanavalin A (Con A) [1]) [nM] | kd: dissociation velocity constant (concanavalin A (Con A) [1]; [3]) [s^−1 × 10^−2] | kon (concanavalin A (Con A) [1]; 1.0 μM Con A, Mal ligand chip against Glc ligand chip (2-channel), PBS pH 7.4, 25° C., read-out: ka: binding velocity constant) [M⁻¹ s⁻¹] | specific interaction with PSA by SPR (Pea Lectin (PSA)) | binding of Con A to ligand by SPR (concanavalin A (Con A) [1]) | KD (kd/ka): dissociation constant (concanavalin A (Con A) [1]; [3]) [nM] | retention of Con A on affinity column (concanavalin A (Con A) [2]) | specific interaction with BSA by SPR (BSA) | ligand immobilization quantity (resonant angle change) (neutroavidin) [RU] |
| --- | --- | --- | --- | --- | --- | --- | --- | --- | --- |
| O=C1N[C@H]2[C@H](CS[C@H]2CCCCC(=O)N(CCNC(=O)c2ccc(NC[C@H](O)[C@@H](O)[C@H](O[C@H]3O[C@H](CO)[C@@H](O)[C@H](O)[C@H]3O)[C@H](O)CO)cc2)CCNC(=O)c2ccc(NC[C@H](O)[C@@H](O)[C@H](O[C@H]3O[C@H](CO)[C@@H](O)[C@H](O)[C@H]3O)[C@H](O)CO)cc2)N1 [Compound 2-Mal, reference compound] | 960 ± 50 | 1.4 ± 0.86 | 15000 ± 8600 | – | – | – | – | – | – |
| O=C(CCN(CCC(=O)NCCN(CCC(=O)Nc1cccc(NCC(O)C(O)C(OC2OC(CO)C(O)C(O)C2O)C(O)CO)c1)CCC(=O)Nc1cccc(NCC(O)C(O)C(OC2OC(CO)C(O)C(O)C2O)C(O)CO)c1)C(=O)CCCCC1SCC2NC(=O)NC21)NCCN(CCC(=O)Nc1cccc(NCC(O)C(O)C(OC2OC(CO)C(O)C(O)C2O)C(O)CO)c1)CCC(=O)Nc1cccc(NCC(O)C(O)C(OC2OC(CO)C(O)C(O)C2O)C(O)CO)c1 (stereo not shown) [Compound 4-Mal] | – | 0.72 ± 0.021 | – | do not specifically interact | firmly binds | 590 ± 60 | A majority of Con A was retained | do not specifically interact | 220 |
